Where two headings read alike, the source gives them in different places.
Tests used:
HIV = settings: Anderson 2012; cited from earlier work
[1] = Cohort 3: 16 week study of HIV negative subjects on daily PrEP, TFV in plasma and urine (LC-MS/MS); assay type: in vivo, human; settings: Cohort 3, daily PrEP
Method: (§1) 3 cohort studies were conducted to assess a system for detection of the active metabolite tenofovir (TFV) of the prodrug nucleotide reverse transcriptase inhibitor (NRTI) tenofovir disoproxil fumarate (TDF). Cohort 1: a cross sectional study of 10 HIV positive subjects with undetectable HIV viral loads on a TDF-based regimen; Cohort 2: a single dose study of Truvada in 10 healthy subjects to evaluate TFV clearance in plasma and urine over 7 days; Cohort 3: a 16 week study of 10 HIV negative subjects receiving daily PrEP to evaluate concordance between plasma and urine over time.
(§2) A semi-quantitative liquid chromatography-tandem mass spectrometry (LC-MS/MS) urine assay was developed for detection of TFV with high sensitivity/specificity. […] To evaluate the qualitative relationship of urine TFV levels to plasma levels, the levels of TFV in the urine and plasma from Cohort 1 was evaluated. […] In addition, the TFV concentration was 3-4 logs higher in urine than plasma (FIG. 2). In cohort 2, TFV was detected for >7 days in urine and 2-4 days in plasma after a single dose of Truvada™ (FIG. 3). […]
(§3) A semi-quantitative liquid chromatography-tandem mass spectrometry (LC-MS/MS) urine assay with high sensitivity and specificity for TFV allowed us to determine TFV concentrations in log categories between <10 ng/L to >10,000 ng/mL. […]

HIV-1 = settings: cited from earlier work
[2] = in vivo; cited from earlier work
[3] = human, in vivo
Method: as §1, §2, §3

[4] = in vivo; cited from earlier work; remark: listed apart in the source
[5] = Cohort 2: single dose of Truvada in healthy subjects, TFV clearance in plasma and urine over 7 days (LC-MS/MS); assay type: in vivo, human
Method: as §1
A semi-quantitative liquid chromatography-tandem mass spectrometry (LC-MS/MS) urine assay was developed for detection of TFV with high sensitivity/specificity. […] To evaluate the qualitative relationship of urine TFV levels to plasma levels, the levels of TFV in the urine and plasma from Cohort 1 was evaluated. […] In addition, the TFV concentration was 3-4 logs higher in urine than plasma (FIG. 2). In cohort 2, TFV was detected for >7 days in urine and 2-4 days in plasma after a single dose of Truvada™ (FIG. 3). […] The urine assay was 2 logs more sensitive than serum over 7 days (FIG. 3).
A semi-quantitative liquid chromatography-tandem mass spectrometry (LC-MS/MS) urine assay with high sensitivity and specificity for TFV allowed us to determine TFV concentrations in log categories between <[…] to >10,000 ng/mL. Following protein precipitation (0.1 mL human plasma or urine or diluted urine sample) using 100% acetonitrile with 0.1% formic acid, containing deuterated internal standard (2H6-tenofovir, 50 ng/mL), the analytes were separated using gradient mobile phase on a reverse phase C18 column and analyzed by MS/MS (AB Sciex API4000). The multiple reaction monitoring of m/z 288.3 to 176.3 for tenofovir and m/z 294.3 to 182.2 for 2H6-tenofovir was used for analysis. […] Flow rate was 0.7 ml/min and total chromatographic run-time was 3.0 minutes/sample.
Standards (10, 100, 1000 and 10,000 ng/mL in human plasma), blanks (double blank and internal standard blank) and unknown plasma and urine samples were thawed to room temperature. One hundred μL of all standards and blanks were put into appropriate wells on a 96 well plate. Diluted unknown urine samples (95 μL blank plasma +5 μL of unknown urine samples, 20-fold dilution) or undiluted plasma samples were mixed with 400 μL of IS solution in a 96 well plate. The plate was vortexed for 30 seconds at high speed and centrifuged for 30 minutes at 4000 rpm. Supernatant was transferred to a fresh 96 well plate and a 10 μL aliquot was injected for LC-MS/MS analysis from autosampler. […] When the concentration of TFV in urine samples exceeded 1,000 ng/mL, samples were diluted 50-fold with blank urine and reanalyzed.

Row | SMILES | intracellular concentration associated with a 90% reduction in HIV acquisition relative to the placebo arm (HIV) | plasma samples with TFV detected [1] | urine samples with TFV detected [1] | HIV-1 risk reduction corresponding to intracellular tenofovir concentration (HIV-1; 2 doses per week) | HIV-1 risk reduction corresponding to intracellular tenofovir concentration (HIV-1; 4 doses per week) | HIV-1 risk reduction corresponding to intracellular tenofovir concentration (HIV-1; 7 doses per week) | window of exposure reflected by single plasma concentrations [2] | TFV concentration higher in urine than plasma [3] | intracellular half-life [4] | plasma half-life [4] | time TFV detected in plasma ([5]; after a single dose of Truvada) | time TFV detected in urine ([5]; after a single dose of Truvada) | urine TFV clearance pattern ([5]; after a single dose of Truvada, over 7 days) | window of medication usage reflected by TFV detection in urine ([5]; after oral TDF/FTC ingestion, preliminary data)
1 | CC(Cn1cnc2c(N)ncnc21)OCP(=O)(O)OP(=O)(O)OP(=O)(O)O (stereo in doubt) [tenofovir-diphosphate] | 16 fmol per million peripheral blood mononuclear cells (PBMCs) |  |  |  |  |  |  |  |  |  |  |  |  | 
2 | C[C@H](Cn1cnc2c(N)ncnc21)OCP(=O)(O)O [TFV, Tenofovir] |  | 74% | 93% | 76% | 96% | 99% | 2 to 3 days | 3-4 logs | 150 h | 17 h | 2 to 4 days | > 7 days | cleared in a log-linear fashion | one to at least seven days
